Experimental findings from patent US9770023B2, “Active compound combinations comprising phenylamidine compounds and further fungicides” (BAYER CROPSCIENCE AKTIENGESELLSCHAFT, priority 2014, dated 2017) are described below.

Assay [1] relates to Blumeria graminis f.sp. hordei. The experiment in a line: in vivo preventive Blumeria test (barley). The method, then: (§1) [table] To produce a suitable preparation of active compound, 1 part by weight of active compound or active compound combination is mixed with the stated amounts of solvent and emulsifier, and the concentrate is diluted with water to the desired concentration. To test for preventive activity, young plants are sprayed with the preparation of active compound or active compound combination at the stated rate of application. After the spray coating has been dried, the plants are dusted with spores of Blumeria graminis f.sp. hordei. The plants are placed in the greenhouse at a temperature of approximately 18° C. and a relative atmospheric humidity of approximately 80% to promote the development of mildew pustules. The test is evaluated 7 days after the inoculation. 0% means an efficacy which corresponds to that of the untreated control, while an efficacy of 100% means that no disease is observed.

In assay [2] the test system is Pyrenophora teres. The experiment in a line: in vivo preventive Pyrenophora teres test (barley). As to conditions: Table F1, 8 days after inoculation, 80 ppm a.i. The procedure:
as §1, with “sprayed” for “dusted”, “a spore suspension” for “spores”, “Pyrenophora teres. The plants remain for 48 hours in an incubation cabinet at approximately 20° C. and a relative atmospheric humidity of approximately 100%.” for “Blumeria graminis f.sp. hordei.”, “20°” for “18°”, “80%.” for “80% to promote the development of mildew pustules.”, “8” for “7”

Assay [3] has as its system Septoria tritici. Put plainly: in vivo preventive Septoria tritici test (wheat). The method, then: as §1, with “sprayed” for “dusted”, “a spore suspension” for “spores”, “Septoria tritici. The plants remain for 48 hours in an incubation cabinet at approximately 20° C. and a relative atmospheric humidity of approximately 100% and afterwards for 60 hours at approximately 15° C. in a translucent incubation cabinet at a relative atmospheric humidity of approximately 100%.” for “Blumeria graminis f.sp. hordei.”, “15°” for “18°”, “80%.” for “80% to promote the development of mildew pustules.”, “21” for “7”

The test system of assay [4] is Alternaria solani. The experiment in a line: in vivo preventive test on Alternaria test (tomatoes). The procedure: [table] To produce a suitable preparation of active compound, 1 part by weight of active compound is mixed with the stated amounts of solvent and emulsifier, and the concentrate is diluted with water to the desired concentration. To test for preventive activity, young plants are sprayed with the preparation of active compound at the stated rate of application. After the spray coating has dried on, the plants are inoculated with an aqueous spore suspension of Alternaria solani. The plants are then placed in an incubation cabinet at approximately 20° C. and a relative atmospheric humidity of 100%. The test is evaluated 3 days after the inoculation. 0% means an efficacy which corresponds to that of the untreated control while an efficacy of 100% means that no disease is observed.

Assay [5] relates to Phakopsora pachyrhizi. The experiment in a line: in vivo preventive test on Phakopsora test (soybeans). The method, then: To produce a suitable preparation of active compound, 1 part by weight of active compound is mixed with the stated amounts of solvent and emulsifier, and the concentrate is diluted with water to the desired concentration. To test for preventive activity, young plants are sprayed with the preparation of active compound at the stated rate of application. After the spray coating has dried on, the plants are inoculated with an aqueous spore suspension of the causal agent of soybean rust (Phakopsora pachyrhizi) and stay for 24 h without light in an incubation cabinet at approximately 24° C. and a relative atmospheric humidity of 95%. The plants remain in the incubation cabinet at approximately 24° C. and a relative atmospheric humidity of approximately 80% and a day/night interval of 12 h.
The test is evaluated 7 days after the inoculation. 0% means an efficacy which corresponds to that of the untreated control, while an efficacy of 100% means that no disease is observed.

Assay [6] relates to Puccinia triticina. The experiment in a line: in vivo preventive Puccinia triticina test (wheat). As to conditions: Table E1, 8 days after inoculation, 40 ppm a.i. The method, then: To produce a suitable preparation of active compound, 1 part by weight of active compound or active compound combination is mixed with the stated amounts of solvent and emulsifier, and the concentrate is diluted with water to the desired concentration.
To test for preventive activity, young plants are sprayed with the preparation of active compound or active compound combination at the stated rate of application. After the spray coating has been dried, the plants are sprayed with a spore suspension of Puccinia triticina. The plants remain for 48 hours in an incubation cabinet at approximately 20° C. and a relative atmospheric humidity of approximately 100%. The plants are placed in the greenhouse at a temperature of approximately 20° C. and a relative atmospheric humidity of approximately 80%.
The test is evaluated 8 days after the inoculation. 0% means an efficacy which corresponds to that of the untreated control, while an efficacy of 100% means that no disease is observed.

The test system of assay [7] is Leptosphaeria nodorum. The experiment in a line: in vivo preventive Leptosphaeria nodorum test (wheat). As to conditions: Table C1, 8 days after inoculation, 80 ppm a.i. The procedure: [table] To produce a suitable preparation of active compound, 1 part by weight of active compound or active compound combination is mixed with the stated amounts of solvent and emulsifier, and the concentrate is diluted with water to the desired concentration. To test for preventive activity, young plants are sprayed with the preparation of active compound or active compound combination at the stated rate of application. After the spray coating has been dried, the plants are sprayed with a spore suspension of Leptosphaeria nodorum. The plants remain for 48 hours in an incubation cabinet at approximately 20° C. and a relative atmospheric humidity of approximately 100%. The plants are placed in the greenhouse at a temperature of approximately 25° C. and a relative atmospheric humidity of approximately 80%. The test is evaluated 8 days after the inoculation. 0% means an efficacy which corresponds to that of the untreated control, while an efficacy of 100% means that no disease is observed.

SMILES strings stand for the structures.

With `CCN(C)/C=N/c1cc(C)c(Oc2ccccc2)cc1C` [(I-d), N′-(2,5-dimethyl-4-phenoxyphenyl)-N-ethyl-N-methylimidoformamide], the “Efficacy in % found” value worked out at 33% in assay [1] (Table B1, 7 days after inoculation, 40 ppm a.i.); 0% in assay [1] (Table B2, 7 days after inoculation, 10 ppm a.i.); 0% in assay [1] (Table B2, 7 days after inoculation, 20 ppm a.i.); 0% in assay [1] (Table B2, 7 days after inoculation, 40 ppm a.i.); 22% in assay [1] (Table B2, 7 days after inoculation, 80 ppm a.i.); 29% in assay [2]. Also, the “Efficacy in % found” value is recorded as 14% in assay [3] (Table G1, 21 days after inoculation, 20 ppm a.i.); 14% in assay [3] (Table G1, 21 days after inoculation, 40 ppm a.i.); 0% in assay [3] (Table G2, 21 days after inoculation, 40 ppm a.i.); 0% in assay [3] (Table G2, 21 days after inoculation, 80 ppm a.i.); 8% in assay [4] (Table A1, 3 days after inoculation, 0.5 ppm a.i.); 15% in assay [4] (Table A1, 3 days after inoculation, 1 ppm a.i.). For the same molecule, the “Efficacy in % found” value in assay [4] (Table A2, 3 days after inoculation, 0.1 ppm a.i.) came to 0%; in assay [4] (Table A2, 3 days after inoculation, 0.2 ppm a.i.), 0%; in assay [5] (Table D1, 7 days after inoculation, 0.05 ppm a.i.), 0%; in assay [5] (Table D1, 7 days after inoculation, 0.1 ppm a.i.) it was 23%; in assay [5] (Table D1, 7 days after inoculation, 0.2 ppm a.i.), 86%; in assay [5] (Table D2, 7 days after inoculation, 0.05 ppm a.i.), 0%. Besides, the “Efficacy in % found” value in assay [5] (Table D2, 7 days after inoculation, 0.1 ppm a.i.) was 0%; in assay [5] (Table D2, 7 days after inoculation, 0.2 ppm a.i.), 23%; in assay [5] (Table D3, 7 days after inoculation, 0.05 ppm a.i.) it was 0%; in assay [5] (Table D3, 7 days after inoculation, 0.1 ppm a.i.), 0%; in assay [6] it was 57%; in assay [7], 29%.
